Values of other authors, collected in patent publication US9708371B2, “Treatments for gastrointestinal disorders” (Ironwood Pharmaceuticals, Inc., priority 2011, dated 2017).
Bridge positions count the residues as written; N and C are the ends. Peptide text beside a SMILES is read from it.

Settings: therapeutic dose levels

For `C[C@@H]1NC(=O)[C@@H]2CCCN2C(=O)[C@H](CC(N)=O)NC(=O)[C@@H]2CSSC[C@H](N)C(=O)N[C@H]3CSSC[C@H](NC1=O)C(=O)N[C@@H]([C@@H](C)O)C(=O)NCC(=O)N[C@H](C(=O)N[C@@H](Cc1ccc(O)cc1)C(=O)O)CSSC[C@H](NC(=O)[C@H](Cc1ccc(O)cc1)NC(=O)[C@H](CCC(=O)O)NC3=O)C(=O)N2` [Linaclotide, Cys Cys Glu Tyr Cys Cys Asn Pro Ala Cys Thr Gly Cys Tyr] (H-CCEYCCNPACTGCY-OH; disulfide 1-6, 2-10, 5-13 (inferred); N-terminus and C-terminus assumed), which “levels seen systemically after oral administration” value is on record?
Its value is “no detectable levels”.
